Here are results for two compounds from patent US20190054135A1, “PLANT OR MICROORGANISM-DERIVED CAROTENOID-OXYGEN COPOLYMER COMPOSITIONS, METHODS OF IDENTIFYING, QUANTIFYING AND PRODUCING SAME AND USES THEREOF” (Avivagen Inc., priority 2016, published 2019).

One series concerns prostate carcinogenesis. To be noted: rat model of prostate carcinogenesis; cited from earlier work.
The nature of series [1]: solubility as noted during extraction and precipitation. Type of series: physicochemical. To be noted: pH 12-13. As to the method: Purification and concentration of GA was achieved using chloroform. The chloroform extract contained a complex mixture of substances, including carotenoids and carboxylic acids.
Indeed, addition of hexanes to an ethyl acetate extract of carrot powder #1 yielded a brown precipitate. Redissolving the recovered solid in ethyl acetate and precipitating again with hexanes and repeating the procedure gave a brown solid, which, at ca. 0.7 mg/g, was about 1.4 times the estimated OxPVA level, well within the anticipated range for the GA-based estimate (see Isolated Polymer and Polymer/OxPVA columns in Table 2). A similar ratio (1.6) was found for carrot powder #2, for which the yield of copolymer was around half that of carrot powder #1, in line with the respective relative amounts of GA. Confirmation that the isolated solid is largely composed of carotenoid-oxygen copolymer products was provided by comparison of elemental composition, IR, UV-Vis, GPC and GC-MS thermal decomposition data with the corresponding data for the OxBC polymer.

Take `CC(C)=CCC/C(C)=C/C=C/C(C)=C/C=C/C(C)=C/C=C/C=C(C)/C=C/C=C(C)/C=C/C=C(\C)CCC=C(C)C` [lycopene]: in the series with prostate carcinogenesis, the “inhibition of prostate carcinogenesis” value was “not lycopene alone inhibited carcinogenesis”.

Turning to `CC(=O)CCCC(C)(C)C(=O)O` [GA, geronic acid], the solubility in water result in series [1] is listed as “soluble in water”.
